Experimental data taken from patent publication US8445492B2, “Method for inhibiting growth of cancer cells and cell telomere and diseases of cell proliferation by using heteroannelated anthraquinone derivative compounds” (National Defense Medical Center, priority 2008, dated 2013).
Read-outs that look alike come from different tables or passages of the source.

How the values were obtained:
MDA-MB-435 [1] = test: in vitro test at 1.0×10^−5 M, Breast cancer cell; format: cell-based; details: 1.0×10^−5 molal concentration (M)
UO-31 [2] = test: in vitro test at 1.0×10^−5 M, Kidney cancer cell; format: cell-based; details: 1.0×10^−5 molal concentration (M)
LOX IMV1 = test: in vitro test at 1.0×10^−5 M, Skin cancer cell; format: cell-based; details: 1.0×10^−5 molal concentration (M)
SK-MEL-2 [3] = test: in vitro test at 1.0×10^−5 M, Skin cancer cell; format: cell-based; details: 1.0×10^−5 molal concentration (M)
UACC-257 = test: in vitro test at 1.0×10^−5 M, Skin cancer cell; format: cell-based; details: 1.0×10^−5 molal concentration (M)
UACC-62 = test: in vitro test at 1.0×10^−5 M, Skin cancer cell; format: cell-based; details: 1.0×10^−5 molal concentration (M)
U251 = test: in vitro test at 1.0×10^−5 M, CNS cancer cell; format: cell-based; details: 1.0×10^−5 molal concentration (M)
EKVX = details: for TGI: EKVX
HOP-92 = details: for TGI: HOP-92
K-562 = test: cells; details: Homo sapiens; for GI50: K562
SF-295 = test: NCI DTP in-vitro dose response, CNS Cancer; format: cell-based
LOX IMVI = test: NCI DTP in-vitro dose response, Melanoma; format: cell-based
M14 = test: NCI DTP in-vitro dose response, Melanoma; format: cell-based
SK-MEL-2 [4] = test: NCI DTP in-vitro dose response, Melanoma; format: cell-based
SK-MEL-28 = test: NCI DTP in-vitro dose response, Melanoma; format: cell-based
SK-OV-3 = test: NCI DTP in-vitro dose response, Ovarian Cancer; format: cell-based
786-0 = test: NCI DTP in-vitro dose response, Renal Cancer; format: cell-based
SN12C = test: NCI DTP in-vitro dose response, Renal Cancer; format: cell-based
UO-31 [5] = test: NCI DTP in-vitro dose response, Renal Cancer; format: cell-based
MDA-MB-231/ATCC = test: NCI DTP in-vitro dose response, Breast Cancer; format: cell-based
HS 578T = test: NCI DTP in-vitro dose response, Breast Cancer; format: cell-based
MDA-MB-435 [6] = test: NCI DTP in-vitro dose response, Breast Cancer; format: cell-based
T-47D = test: NCI DTP in-vitro dose response, Breast Cancer; format: cell-based

CCc1nc2ccc3c(c2[nH]1)C(=O)c1ccccc1C3=O [No. 4, 2-Ethyl-1(3)H-anthra[1,2-d]imidazole-6,11-dione]
inhibition effect on cancer cell line (Table 2 value) (MDA-MB-435 [1]): 84.39
inhibition effect on cancer cell line (Table 2 value) (UO-31 [2]): 23.94
inhibition effect on cancer cell line (Table 2 value) (LOX IMV1): 39.98
inhibition effect on cancer cell line (Table 2 value) (SK-MEL-2 [3]): 40.07
inhibition effect on cancer cell line (Table 2 value) (UACC-257): 39.69
inhibition effect on cancer cell line (Table 2 value) (UACC-62): 51.35
inhibition effect on cancer cell line (Table 2 value) (U251): 60.13
TGI (EKVX): 9.43E−5
Percent Growth (EKVX; Log10 Concentration −5.0): 15%
Percent Growth (EKVX; Log10 Concentration −6.0): 59%
Percent Growth (EKVX; Log10 Concentration −7.0): 82%
Percent Growth (EKVX; Log10 Concentration −8.0): 88%
TGI (HOP-92): >1.00E−4
Percent Growth (HOP-92; Log10 Concentration −4.0): 23%
Percent Growth (HOP-92; Log10 Concentration −5.0): 48%
Percent Growth (HOP-92; Log10 Concentration −6.0): 64%
Percent Growth (HOP-92; Log10 Concentration −7.0): 80%
Percent Growth (HOP-92; Log10 Concentration −8.0): 93%
GI50 (K-562): 78.3 µM

O=C1c2ccccc2C(=O)c2c1ccc1nsnc21 [No. 22, Anthra[2,1-c][1,2,5]thiadiazole-6,11-dione]
GI50 (SF-295; Homo sapiens, SF-295): 3.08 µM
CC50 (SF-295; Homo sapiens, SF-295, read-out: LC50): 93.9 µM
Percent Growth (SF-295; Log10 Concentration −4.0): −51%
Percent Growth (SF-295; Log10 Concentration −5.0): −3%
Percent Growth (SF-295; Log10 Concentration −6.0): 100%
Percent Growth (SF-295; Log10 Concentration −7.0): 105%
Percent Growth (SF-295; Log10 Concentration −8.0): 102%
TGI (SF-295; SF-295): 9.40E−6
GI50 (LOX IMVI; Homo sapiens, LOX IMVI): 1030 nM
CC50 (LOX IMVI; Homo sapiens, LOX IMVI, read-out: LC50): > 100 µM
TGI (LOX IMVI; LOX IMVI): 3.56E−6
Percent Growth (LOX IMVI; Log10 Concentration −4.0): −33%
Percent Growth (LOX IMVI; Log10 Concentration −5.0): −42%
Percent Growth (LOX IMVI; Log10 Concentration −6.0): 51%
Percent Growth (LOX IMVI; Log10 Concentration −7.0): 98%
Percent Growth (LOX IMVI; Log10 Concentration −8.0): 101%
GI50 (M14; Homo sapiens, M14): 2440 nM
CC50 (M14; Homo sapiens, M14, read-out: LC50): > 100 µM
Percent Growth (M14; Log10 Concentration −4.0): −41%
Percent Growth (M14; Log10 Concentration −5.0): −32%
Percent Growth (M14; Log10 Concentration −6.0): 102%
Percent Growth (M14; Log10 Concentration −7.0): 100%
Percent Growth (M14; Log10 Concentration −8.0): 100%
TGI (M14; M14): 5.78E−6
GI50 (SK-MEL-2 [4]; Homo sapiens, SK-MEL-2): 2380 nM
CC50 (SK-MEL-2 [4]; Homo sapiens, SK-MEL-2, read-out: LC50): > 100 µM
Percent Growth (SK-MEL-2 [4]; Log10 Concentration −4.0): −32%
Percent Growth (SK-MEL-2 [4]; Log10 Concentration −5.0): −22%
Percent Growth (SK-MEL-2 [4]; Log10 Concentration −6.0): 94%
Percent Growth (SK-MEL-2 [4]; Log10 Concentration −7.0): 109%
Percent Growth (SK-MEL-2 [4]; Log10 Concentration −8.0): 110%
TGI (SK-MEL-2 [4]; SK-MEL-2): 6.42E−6
GI50 (SK-MEL-28; Homo sapiens, SK-MEL-28): 9.88 µM
CC50 (SK-MEL-28; Homo sapiens, SK-MEL-28, read-out: LC50): 50.3 µM
Percent Growth (SK-MEL-28; Log10 Concentration −4.0): −93%
Percent Growth (SK-MEL-28; Log10 Concentration −5.0): 50%
Percent Growth (SK-MEL-28; Log10 Concentration −6.0): 107%
Percent Growth (SK-MEL-28; Log10 Concentration −7.0): 106%
Percent Growth (SK-MEL-28; Log10 Concentration −8.0): 103%
TGI (SK-MEL-28; SK-MEL-28): 2.24E−5
GI50 (SK-OV-3; Homo sapiens, SK-OV-3): 2260 nM
CC50 (SK-OV-3; Homo sapiens, SK-OV-3, read-out: LC50): 23.6 µM
Percent Growth (SK-OV-3; Log10 Concentration −4.0): −97%
Percent Growth (SK-OV-3; Log10 Concentration −5.0): −22%
Percent Growth (SK-OV-3; Log10 Concentration −6.0): 89%
Percent Growth (SK-OV-3; Log10 Concentration −7.0): 90%
Percent Growth (SK-OV-3; Log10 Concentration −8.0): 102%
TGI (SK-OV-3; SK-OV-3): 6.35E−6
TGI (786-0; 786-0): 1.16E−5
GI50 (786-0; Homo sapiens, 786-0): 3.93 µM
CC50 (786-0; Homo sapiens, 786-0, read-out: LC50): 52.7 µM
Percent Growth (786-0; Log10 Concentration −4.0): −71%
Percent Growth (786-0; Log10 Concentration −5.0): 5%
Percent Growth (786-0; Log10 Concentration −6.0): 116%
Percent Growth (786-0; Log10 Concentration −7.0): 106%
Percent Growth (786-0; Log10 Concentration −8.0): 105%
GI50 (SN12C; Homo sapiens, SN12C): 2350 nM
CC50 (SN12C; Homo sapiens, SN12C, read-out: LC50): > 100 µM
Percent Growth (SN12C; Log10 Concentration −4.0): −35%
Percent Growth (SN12C; Log10 Concentration −5.0): −7%
Percent Growth (SN12C; Log10 Concentration −6.0): 83%
Percent Growth (SN12C; Log10 Concentration −7.0): 103%
Percent Growth (SN12C; Log10 Concentration −8.0): 91%
TGI (SN12C; SN12C): 8.42E−6
GI50 (UO-31 [5]; Homo sapiens, UO-31): 1950 nM
CC50 (UO-31 [5]; Homo sapiens, UO-31, read-out: LC50): 7.41 µM
Percent Growth (UO-31 [5]; Log10 Concentration −4.0): −66%
Percent Growth (UO-31 [5]; Log10 Concentration −5.0): −72%
Percent Growth (UO-31 [5]; Log10 Concentration −6.0): 100%
Percent Growth (UO-31 [5]; Log10 Concentration −7.0): 118%
Percent Growth (UO-31 [5]; Log10 Concentration −8.0): 111%
TGI (UO-31 [5]; UO-31): 3.81E−6
GI50 (MDA-MB-231/ATCC; Homo sapiens, MDA-MB-231): 2560 nM
CC50 (MDA-MB-231/ATCC; Homo sapiens, MDA-MB-231, read-out: LC50): > 100 µM
Percent Growth (MDA-MB-231/ATCC; Log10 Concentration −4.0): 6%
Percent Growth (MDA-MB-231/ATCC; Log10 Concentration −5.0): 4%
Percent Growth (MDA-MB-231/ATCC; Log10 Concentration −6.0): 81%
Percent Growth (MDA-MB-231/ATCC; Log10 Concentration −7.0): 87%
Percent Growth (MDA-MB-231/ATCC; Log10 Concentration −8.0): 104%
TGI (MDA-MB-231/ATCC; MDA-MB-231/ATCC): >1.00E−4
TGI (HS 578T; HS 578T): >1.00E−4
GI50 (HS 578T; Homo sapiens, Hs-578T): 5.03 µM
CC50 (HS 578T; Homo sapiens, Hs-578T, read-out: LC50): > 100 µM
Percent Growth (HS 578T; Log10 Concentration −4.0): 21%
Percent Growth (HS 578T; Log10 Concentration −5.0): 29%
Percent Growth (HS 578T; Log10 Concentration −6.0): 100%
Percent Growth (HS 578T; Log10 Concentration −7.0): 114%
Percent Growth (HS 578T; Log10 Concentration −8.0): 109%
GI50 (MDA-MB-435 [6]; Homo sapiens, MDA-MB-435): 1910 nM
CC50 (MDA-MB-435 [6]; Homo sapiens, MDA-MB-435, read-out: LC50): 87.8 µM
Percent Growth (MDA-MB-435 [6]; Log10 Concentration −4.0): −51%
Percent Growth (MDA-MB-435 [6]; Log10 Concentration −5.0): −32%
Percent Growth (MDA-MB-435 [6]; Log10 Concentration −6.0): 82%
Percent Growth (MDA-MB-435 [6]; Log10 Concentration −7.0): 102%
Percent Growth (MDA-MB-435 [6]; Log10 Concentration −8.0): 100%
TGI (MDA-MB-435 [6]; MDA-MB-435): 5.23E−6
GI50 (T-47D; Homo sapiens, T47D): 375 nM
CC50 (T-47D; Homo sapiens, T47D, read-out: LC50): 7.79 µM
Percent Growth (T-47D; Log10 Concentration −4.0): −60%
Percent Growth (T-47D; Log10 Concentration −5.0): −59%
Percent Growth (T-47D; Log10 Concentration −6.0): 22%
Percent Growth (T-47D; Log10 Concentration −7.0): 88%
Percent Growth (T-47D; Log10 Concentration −8.0): 91%
TGI (T-47D; T-47D): 1.87E−6
inhibition effect on cancer cell line (Table 2 value) (LOX IMV1): −50.6
TGI (EKVX): 7.03E−6
Percent Growth (EKVX; Log10 Concentration −4.0): −62%
Percent Growth (EKVX; Log10 Concentration −5.0): −15%
Percent Growth (EKVX; Log10 Concentration −6.0): 84%
Percent Growth (EKVX; Log10 Concentration −7.0): 89%
Percent Growth (EKVX; Log10 Concentration −8.0): 96%
TGI (HOP-92): 9.84E−6
Percent Growth (HOP-92; Log10 Concentration −4.0): −27%
Percent Growth (HOP-92; Log10 Concentration −5.0): −1%
Percent Growth (HOP-92; Log10 Concentration −6.0): 94%
Percent Growth (HOP-92; Log10 Concentration −7.0): 88%
Percent Growth (HOP-92; Log10 Concentration −8.0): 95%
GI50 (K-562): 3.23 µM
CC50 (K-562; K562, read-out: LC50): > 100 µM
